# Measured values taken from US20230073512A1, “MODULATORS OF CULLIN 3 ADAPTOR KBTBD4 AS ANTI-CANCER COMPOUNDS” (UNIVERSITE DE MONTREAL, priority 2019, published 2023).
# Read-outs that look alike come from different tables or passages of the source. Residues, ends and D or L forms follow the SMILES beside them. *: point of attachment. Cbz = O=C(OCc1ccccc1)*
# Experiments:
# [1] = PK assays in mice, intravenous and oral
# Procedure: PK assays were performed in mice (n=3). […] The following pharmacokinetic parameters were calculated.
# The compounds were orally administered at 20 mg/kg and plasma samples were collected at 15, 30 minutes and 1, 2, 4, 6 and 8 hours after administration. The following pharmacokinetic parameters were calculated.
# [2] = molecular target: T1, RCOR1, LSD1, HDAC2 in OCI-AML1 cells (Homo sapiens, UniProt O60341+Q92769+Q9UKL0); test: Western Blot of CoREST members; format: cell-based; details: OCI-AML1, UM171 250 nM plus MG132 10 μM or MLN2494 100 nM
# T1 construct: nucleoplasmic proteins extracted from shLuc or shKBTBD4- transduced OCI-AML1 cells; endogenous in cells; host or cells: OCI-AML1 cells transduced with shLuc or shKBTBD4
# Procedure: Representative blots (upper panel) showing KBTBD4, RCOR1, LSD1, HDAC2 and Nucleolin (NCL, loading control) protein levels. Quantification of RCOR1 protein levels were evaluated in 3 independent experiments (lower panel).
# Representative blots (upper panel) showing CUL3, RCOR1 and TUBA (loading control) protein levels. Quantification of RCOR1 protein levels were evaluated in 2 independent experiments (lower panel).
# (§1) Total protein extraction was performed in lysis buffer (25 mM tris ph7.5, 150 mM NaCl, 1% NP-40, protease inhibitors).
# [3] = test system: CD201 and CD86 in OCI-AML1 cells; test: Flow cytometry of CD201 and CD86 surface expression; format: cell-based; details: Panobinostat 5 nM, TCP 5 μM
# Procedure: (§2) Mouse anti-human antibodies were used to detect CD34 (APC or BV421-BD Biosciences), CD45RA (PE-BD Biosciences), CD86 (PerCP-eFluor710-eBioscience), CD90 (PECY7- BioLegend), and CD201 (APC-BioLegend). Flow cytometry acquisitions were performed on a Canto II cytometer (BD Biosciences) and data analysis was performed using FowJo software (Tree Star, Ashland, Oreg., USA) and GraphPad Prism software. Dead cells were excluded using 7AAD staining.
# [4] = test system: CD201 and CD86 in OCI-AML5; test: FACS analysis of CD201 and CD86; format: cell-based; details: OCI-AML5, 24 hrs; UM171 250 nM, Panobinostat 5 nM, TCP 10 μM
# Procedure: as §2
# CD34+ cord blood cells = details: 7 days culture, UM171 at 5 nM and LSD1 inhibitor (TCP)
# Procedure: as §2
# [5] = test system: H3K27Ac and H3K4me2 in OCI-AML5; test: Flow cytometry of H3K27Ac, H3K4me2 and H3; format: cell-based; details: OCI-AML5, 24 hrs; UM171 250 nM, Panobinostat 5 nM, TCP 10 μM
# [6] = molecular target: T2, RCOR1, LSD1, HDAC2 in CD34+ derived cord blood cells (Homo sapiens, UniProt O60341+Q92769+Q9UKL0); test: Western Blot of CoREST members in CD34+ cells; format: cell-based; details: UM171 500 nM / MG132 5 μM, 4 hrs
# T2 construct: total proteins extracted from d3 expanded CD34+ derived cord blood cells; endogenous in cells; host or cells: d3 expanded human CD34+ cord blood derived cells (primary)
# Procedure: FIG. 15A illustrate a Western Blot analysis of total proteins extracted from d3 expanded CD34+ derived cord blood cells exposed to DMSO, UM171 (500 nM) or UM171/MG132 (5 μM) for 4 hrs. Representative blot showing KBTBD4, RCOR1, LSD1, HDAC2, CUL3 and TUBA as loading control.
# as §1
# CB = test: Cell proliferation, CB sample of Table 2; details: read-out: Antineoplastic effect on cell proliferation, IC50
# AML samples = test: Cell proliferation of cancerous samples from patients
# AML3 = test: Cell proliferation of cancerous cell lines; format: cell-based; details: AML3; read-out: Antineoplastic effect of tested compounds on cell proliferation of cancerous AML3 cells, IC50
# [7] = orally administered at 20 mg/kg
compound,measurement,setting,value
COC(=O)c1ccc2c(c1)[nH]c1ncnc(NCCCN3CCCCC3)c12 [UM729],area under the curve (AUC),[1]; [7],1.2 µM·h
same,bioavailability (% F),[1]; [7],19%
same,maximal time (tmax),[1]; [7],48 min
same,Cmax,"[1]; read-out: maximal concentration (Cmax), orally administered at 20 mg/kg",200 nM
NS(=O)(=O)OC[C@@H]1C[C@@H](n2ccc3c(N[C@H]4CCc5ccccc54)ncnc32)C[C@@H]1O [MLN2494],UM171-induced loss of RCOR1 under co-treatment,[2],normal
"N[C@@H]1C[C@H]1c1ccccc1 (racemic) [TCP, tranylcypromine]",CD86 expression in shKBTBD4 expressing cells,[3],induces
same,CD201 and CD86 expression compared to DMSO,[4],upregulation
same,"CD34+, CD34+CD201+CD90+ and CD34+CD86+ subsets, combination with UM171",CD34+ cord blood cells,synergistic effect
same,H3K27Ac and H3K4me2 marks,[5],induces
CC(C)C[C@@H](C=O)NC(=O)[C@H](CC(C)C)NC(=O)[C@H](CC(C)C)NC(=O)OCc1ccccc1 [MG132] (Cbz-Leu-Leu-Leu-aldehyde),UM171-induced loss of RCOR1 under co-treatment,[2],reduced
same,UM171-induced loss of LSD1 and RCOR1 proteins under co-treatment,[6],abolishes the loss
COC(=O)c1ccc2[nH]c3nc(Cc4ccccc4)nc(NCCCN4CCCCC4)c3c2c1 [UM134],IC50,CB,1000 to 10000 nM
same,IC50,"AML samples; read-out: Antineoplastic effect on cell proliferation, IC50, AML sample 04H063",1000 to 10000 nM
same,IC50,"AML samples; read-out: Antineoplastic effect on cell proliferation, IC50, AML sample 05H094",1000 to 10000 nM
same,IC50,"AML samples; read-out: Antineoplastic effect on cell proliferation, IC50, AML sample 05H149",1000 to 10000 nM
same,IC50,"AML samples; read-out: Antineoplastic effect on cell proliferation, IC50, AML sample 06H045",1000 to 10000 nM
same,IC50,"AML samples; read-out: Antineoplastic effect on cell proliferation, IC50, AML sample 06H088",1000 to 10000 nM
same,IC50,"AML samples; read-out: Antineoplastic effect on cell proliferation, IC50, AML sample 06H117",1000 to 10000 nM
same,IC50,"AML samples; read-out: Antineoplastic effect on cell proliferation, IC50, AML sample 07H005",1000 to 10000 nM
same,IC50,"AML samples; read-out: Antineoplastic effect on cell proliferation, IC50, AML sample 07H038",1000 to 10000 nM
same,IC50,"AML samples; read-out: Antineoplastic effect on cell proliferation, IC50, AML sample 07H045",1000 to 10000 nM
same,IC50,"AML samples; read-out: Antineoplastic effect on cell proliferation, IC50, AML sample 07H125",1000 to 10000 nM
same,IC50,"AML samples; read-out: Antineoplastic effect on cell proliferation, IC50, AML sample 07H135",1000 to 10000 nM
same,IC50,"AML samples; read-out: Antineoplastic effect on cell proliferation, IC50, AML sample 07H151",1000 to 10000 nM
same,IC50,"AML samples; read-out: Antineoplastic effect on cell proliferation, IC50, AML sample 08H018",1000 to 10000 nM
same,IC50,"AML samples; read-out: Antineoplastic effect on cell proliferation, IC50, AML sample 09H010",1000 to 10000 nM
same,IC50,"AML samples; read-out: Antineoplastic effect on cell proliferation, IC50, AML sample 09H046",1000 to 10000 nM
same,IC50,"AML samples; read-out: Antineoplastic effect on cell proliferation, IC50, AML sample 09H079",1000 to 10000 nM
same,IC50,"AML samples; read-out: Antineoplastic effect on cell proliferation, IC50, AML sample 09H115",1000 to 10000 nM
same,IC50,"AML samples; read-out: Antineoplastic effect on cell proliferation, IC50, AML sample 10H022",1000 to 10000 nM
same,IC50,"AML samples; read-out: Antineoplastic effect on cell proliferation, IC50, AML sample 10H127",1000 to 10000 nM
same,IC50,"AML samples; read-out: Antineoplastic effect on cell proliferation, IC50, AML sample 11H002",1000 to 10000 nM
same,IC50,"AML samples; read-out: Antineoplastic effect on cell proliferation, IC50, AML sample 11H046",1000 to 10000 nM
same,IC50,"AML samples; read-out: Antineoplastic effect on cell proliferation, IC50, AML sample 11H103",1000 to 10000 nM
same,IC50,"AML samples; read-out: Antineoplastic effect on cell proliferation, IC50, AML sample 12H045",1000 to 10000 nM
same,IC50,"AML samples; read-out: Antineoplastic effect on cell proliferation, IC50, AML sample 12H058",1000 to 10000 nM
same,IC50,"AML samples; read-out: Antineoplastic effect on cell proliferation, IC50, AML sample 12H096",1000 to 10000 nM
same,IC50,"AML samples; read-out: Antineoplastic effect on cell proliferation, IC50, AML sample 12H106",1000 to 10000 nM
same,IC50,"AML samples; read-out: Antineoplastic effect on cell proliferation, IC50, AML sample 12H151",1000 to 10000 nM
same,IC50,"AML samples; read-out: Antineoplastic effect on cell proliferation, IC50, AML sample 13H100",1000 to 10000 nM
same,IC50,"AML samples; read-out: Antineoplastic effect on cell proliferation, IC50, AML sample 13H150",1000 to 10000 nM
Cn1nnc(-c2ccc3c(c2)[nH]c2ncnc(NCCCCN4CCCCC4)c23)n1,IC50,AML3,1000 to 2000 nM
COC(=O)c1ccc2c(c1)[nH]c1nc(Cc3ccc(Br)cc3)nc(NCCCN3CCCCC3)c12,IC50,AML3,500 to 1000 nM
COC(=O)c1ccc2c(c1)[nH]c1nc(Cc3ccccc3)nc(Nc3cccc(N)c3)c12,IC50,AML3,2000 to 5000 nM
COC(=O)c1ccc2c(c1)[nH]c1cc(Cc3cccc(OC)c3)nc(NCCCCN3CCCC3)c12,IC50,AML3,1000 to 2000 nM
COC(=O)c1ccc2c(c1)[nH]c1nc(CCc3ccccc3)nc(NCCCN3CCCCC3)c12,IC50,AML3,2000 to 5000 nM
COC(=O)c1ccc2c(c1)[nH]c1nc(CN(C)C)nc(NCCCN3CCCCC3)c12,IC50,AML3,2000 to 5000 nM
COC(=O)c1ccc2c(c1)[nH]c1nc(C(O)c3ccccc3)nc(NCCCN3CCCCC3)c12 (stereo not drawn),IC50,AML3,500 to 1000 nM
COC(=O)c1ccc2c(c1)[nH]c1nc(Cc3ccccc3)nc(NCCCN3CCOCC3)c12,IC50,AML3,2000 to 5000 nM
COC(=O)c1ccc2c(c1)[nH]c1ncnc(NC3CCC(N(C)C)CC3)c12 (stereo not drawn),IC50,AML3,2000 to 5000 nM
C#Cc1cccc(Cc2nc(NCCN(C)CCN)c3c(n2)[nH]c2cc(-c4nnn(C)n4)ccc23)c1,IC50,AML3,2000 to 5000 nM
Cc1nnc(-c2ccc3c(c2)[nH]c2ncnc(NCCCN4CCCCC4)c23)o1,IC50,AML3,2000 to 5000 nM
COC(=O)c1ccc2c(c1)[nH]c1nc(Cc3ccccc3)nc(NCCN(C)CCN)c12,IC50,AML3,1000 to 2000 nM
CN(CCCN)CCCNc1nc(Cc2ccccc2)nc2[nH]c3cc(-c4nnn(C)n4)ccc3c12,IC50,AML3,500 to 1000 nM
